Test results as given in patent US8574831B2, “Mutational profiles in HIV-1 reverse transcriptase correlated with phenotypic drug resistance” (Virco N.V., priority 2000, dated 2013).

Assays:
[1] = tested on: HIV with mutations in the reverse transcriptase gene sequence; test: Phenotypic fold resistance to reverse transcriptase inhibitors, RT mutations at positions 101, 103, 181, 190 (Examples 4-7); format: cell-based, HIV-1
Procedure: As is the case with the genotyping assays, the recombinant virus assay starts with the amplification of viral target sequences by means of PCR. The amplicons are incorporated into a proviral laboratory clone with sequences homologous to those present in the amplicon deleted. This generates a stock of chimeric viruses. The viruses are tested for their ability to grow in the presence of different concentrations of drugs. Results are obtained by calculating IC50 values for each inhibitor and by reporting the results as IC50 values, expressed in μM concentrations, or by computing the ratio of the IC50 values found for the chimeric virus to the IC50 values found for a wild type susceptible laboratory virus tested in parallel. In the latter case, resistance is expressed as “fold-resistance” compared to a wild-type susceptible HIV-1 strain. In order to meet the need for high-volume testing and a short turn-around time for an individual test, the latest generation of phenotyping assays has undergone further modifications. The use of reporter gene systems for susceptibility testing allows the implementation of laboratory automation and standardization. See Pauwels, et al., J. Virol. Methods 20, 309-321 (1998); Paulous, S., et al., International Workshop on HIV Drug Resistance, Treatment Strategies and Eradication, St. Petersburg, Fla., USA. Abstr. 46 (1997); and Deeks, S. G., et al., 2nd International Workshop on HIV Drug Resistance and Treatment Strategies, Lake Maggiore, Italy. Abstr. 53 (1998).
The methods of monitoring HIV-1 drug resistance, may also be used in combination with phenotypic drug resistance testing of viral isolates. For example, in one embodiment, a phenotypic test is utilized that is based upon the construction of chimeric HIV-1 strains composed of the protease (PR) and reverse transcriptase (RT) gene sequences which are isolated and amplified from the patient viral RNA. These strains may subsequently be recombined inside CD4+ T cells with a standard laboratory isogenic (HXB2) HIV-1 DNA construct from which the PR/RT gene sequences were deleted. The recombinant strains may then be grown in the presence of the above-mentioned antiviral drugs and the susceptibility of the viral isolates may be expressed as fold-change value of the IC50 of the drug on the patient isolates over the IC50 of the drug on a wild-type laboratory reference strain.
(§1) Overview of the mean fold increase in resistance and the effect of the 101 mutations in the HIV reverse transcriptase gene sequence. The fold increase in resistance is calculated from the increase in the mean IC50 of the drug relative to the mean IC50 of the same drug for a wild-type reference laboratory HIV-1 strain. The effect of the mutations was investigated on Nevirapine, Delavirdine and Efavirenz.
as §1, with “103” for “101”, “strain.” for “strain. The effect of the mutations was investigated on Nevirapine, Delavirdine and Efavirenz.”
as §1, with “181” for “101”, “strain.” for “strain. The effect of the mutations was investigated on Nevirapine, Delavirdine and Efavirenz.”
as §1, with “190” for “101”, “strain.” for “strain. The effect of the mutations was investigated on Nevirapine, Delavirdine and Efavirenz.”

[2] = tested on: HIV-1 HXB2-D variants with site-directed RT mutations; test: MT-4 cell CPE protection assay, HIV-1 variants constructed by site-directed mutagenesis (Example 2); format: cell-based
Procedure: Mutations in the RT coding region were created by site-directed mutagenesis of a wild-type HXB2-D EcoRl-Pstl restriction enzyme fragment, encompassing the HIV-1 pol gene and cloned into pGEM3 (Promega). Single and multiple nucleotide changes were introduced into RT using the EXSITE™ mutagenesis kit (Strategene). All mutant clones were verified by DNA sequence analysis of the entire RT. PCR fragments were prepared from the mutated clones and the altered RT coding regions were transferred into the HIV-1 HXB2-D genetic background by homologous recombination as described above. The susceptibility of these recombinant viruses to nucleoside analogues was subsequently determined by the MT-4 cell CPE protection assay. Id.

Row | Compound | fold increase in resistance compared to a laboratory reference strain (WT) ([1]; RT genotype 101E) [fold] | fold increase in resistance compared to a laboratory reference strain (WT) ([1]; RT genotype 101H) [fold] | fold increase in resistance compared to a laboratory reference strain (WT) ([1]; RT genotype 101P) [fold] | fold increase in resistance compared to a laboratory reference strain (WT) ([1]; RT genotype 101Q) [fold] | mean fold increase in resistance compared to a laboratory reference strain (WT) ([1]; RT genotype 103H) [fold] | mean fold increase in resistance compared to a laboratory reference strain (WT) ([1]; RT genotype 103N) [fold] | mean fold increase in resistance compared to a laboratory reference strain (WT) ([1]; RT genotype 103R) [fold] | mean fold increase in resistance compared to a laboratory reference strain (WT) ([1]; RT genotype 103S) [fold] | mean fold increase in resistance compared to a laboratory reference strain (WT) ([1]; RT genotype 103T) [fold] | fold increase in resistance compared to a laboratory reference strain (WT) ([1]; RT genotype 181C) [fold] | fold increase in resistance compared to a laboratory reference strain (WT) ([1]; RT genotype 181I) [fold] | fold increase in resistance compared to a laboratory reference strain (WT) ([1]; RT genotype 181S) [fold] | fold increase in resistance compared to a laboratory reference strain (WT) ([1]; RT genotype 190A) [fold] | fold increase in resistance compared to a laboratory reference strain (WT) ([1]; RT genotype 190E) [fold] | fold increase in resistance compared to a laboratory reference strain (WT) ([1]; RT genotype 190Q) [fold] | fold increase in resistance compared to a laboratory reference strain (WT) ([1]; RT genotype 190S) [fold] | fold increase in resistance compared to a laboratory reference strain (WT) ([1]; RT genotype WT (Table 5)) [fold] | mean fold increase in resistance compared to a laboratory reference strain (WT) ([1]; RT genotype WT (Table 6)) [fold] | fold increase in resistance compared to a laboratory reference strain (WT) ([1]; RT genotype WT (Table 7)) [fold] | fold increase in resistance compared to a laboratory reference strain (WT) ([1]; RT genotype WT (Table 8)) [fold] | other results
1 | CC(C)Nc1cccnc1N1CCN(C(=O)c2cc3cc(NS(C)(=O)=O)ccc3[nH]2)CC1 [Delavirdine, delavirdine] | 7.7 | 45.5 | 162.4 | 1.2 | 191.6 | 176.1 | 1.6 | 18.3 | 84.5 | 82.5 | 81.7 | 147.9 | 2.3 | 131.1 | 34.0 | 1.9 | 1.8 | 1.8 | 1.8 | 1.8 | –
2 | O=C1Nc2ccc(Cl)cc2[C@@](C#CC2CC2)(C(F)(F)F)O1 [Efavirenz, efavirenz] | 2.4 | 3.5 | 84.2 | 0.9 | 52.7 | 486.8 | 0.6 | 8.4 | 2.8 | 2.0 | 2.0 | 8.7 | 24.8 | 385.3 | 401.1 | 483.6 | 0.9 | 0.9 | 0.9 | 0.9 | –
3 | Cc1ccnc2c1NC(=O)c1cccnc1N2C1CC1 [Nevirapine, nevirapine] | 4.9 | 24.0 | 53.4 | 1.9 | 69.4 | 48.1 | 1.1 | 45.4 | 43.7 | 56.0 | 63.8 | 82.8 | 60.7 | 40.0 | 52.7 | 75.9 | 1.3 | 1.3 | 1.3 | 1.3 | –
4 | Nc1nc(NC2CC2)c2ncn([C@H]3C=C[C@@H](CO)C3)c2n1 [abacavir, 4-[(2-amino-6-cyclopropyl-amino)-9H-purin-9-yl]-2-cyclopentene-1-methanol] | – | – | – | – | – | – | – | – | – | – | – | – | – | – | – | – | – | – | – | – | susceptibility ([2]; 69S-[S-S] insert plus AZT resistance mutations (210W and 215Y)): decreased susceptibility
5 | O=c1[nH]cnc2c1ncn2[C@H]1CC[C@@H](CO)O1 [ddl, didanosine] | – | – | – | – | – | – | – | – | – | – | – | – | – | – | – | – | – | – | – | – | resistance ([2]; T69A or V75M in a background of AZT mutations): little or no resistance
